Reference: paper PMC9092348, “Cytotoxicity of Alizarine versus Tetrabromocathecol Cyclometalated Pt(II) Theranostic Agents: A Combined Experimental and Computational Investigation” (Inorganic Chemistry, 2022)
Where two headings read alike, the source gives them in different places. Marks after values point to notes of the source that are not given here.

Tests used:
[1] = Experimental measurement of LogPow by RP-HPLC; format: physicochemical; conditions: for logPow^exp: RP-HPLC, water/methanol 80/20, 25 °C; for logPow (approximate): theoretical and experimental values in agreement
Experimental: Reverse phase high performance liquid chromatography (RP-HPLC) analysis was performed to correlate the hydrophobicity of the complexes with their retention time.

[2] = set-up: method as in PMID 21450275; conditions: cited from earlier work
MDA-MB-231 cell line = experiment: Intracellular Pt(II) content by ICP-MS; format: cell-based, human; conditions: 6 h, Figure 6A
Experimental: First, 200,000 cells/well were seeded in complete medium in a 12-well tray. […] These concentrations correspond to IC50 and IC50/2 of each compound according to our previous work aimed at analyzing the cytotoxic performance of these Pt(II) complexes in the MDA.MB.231 cell line.[13] […] An equal percentage of DMSO was added to control samples. Cells were thus washed two times with cold PBS and lysed with 200 μL of a homemade lysis buffer (Tris 50 mM pH 7, NaCl 150 mM, NP40 1% v/v, protease, and phosphatase inhibitors 1% v/v) for 30 min at 4 °C. The intracellular Pt(II) amount was quantified through ICP-MS (BRUKER aurora M90 ICP-MS, MA, USA), and data were normalized to the total protein content evaluated via bicinchoninic acid assay.
(A and C) Cells were seeded in complete medium (400,000 cells/well); the day after old media were discarded and cells were incubated for 6 h with media-containing compounds at the indicated concentrations, then intracellular protein were extracted, and intracellular ^195Pt was evaluated as ng ^195Pt over protein concentration (A) and further normalized vs the compounds’ working concentrations provided (C). Cisplatin was used as the positive control. An equal amount of DMSO was supplied in each experimental condition. Data are presented as mean ± SD of three different experiments; when invisible, the error bar is included into the bar line. […]

Calf Thymus DNA (CT-DNA) = experiment: DNA binding experiment: UV–vis absorption with CT-DNA; conditions: complex 50 μM, PBS pH 7.4, increasing CT-DNA
Experimental: In a quartz cuvette (path length 1 cm), the UV–vis spectra were recorded of a PBS buffer solution (pH 7.4)-containing complex (1, 2, or 3, 50 μM, 0.5% DMF). The UV–vis absorption spectra were successively recorded following each addition of aliquots of Calf Thymus DNA (CT-DNA, 50 μM) after an equilibration time of 1 h.[32],[33]

[3] = test system: human triple-negative breast cancer cell line MDA-MB-231; set-up: method as in doi:10.1002/aoc.5455; conditions: cited from earlier work
[4] = test system: DNA of MDA-MB-231 cell line; experiment: DNA-bound Pt(II) by ICP-MS; format: cell-based, human
Experimental: First, 200,000 cells/well were seeded in the complete medium in a 12-well tray. The day after, the old media were discarded, and the cells were challenged with compound-containing media for 6 h (CisPt: 30 and 60 μM; 1: 25 and 50 μM; 2: 1 and 2 μM; 3: 50 and 100 μM). An equal percentage of DMSO was added to control samples. The cells were thus washed two times with cold phosphate buffered saline (PBS) and digested with 700 μL of a homemade digest buffer (Tris 50 mM pH 8, NaCl 100 mM, EDTA 100 mM, and SDS 1%). The suspensions were moved to vials, and 400 μL of NaCl-saturated solution was added to them. The suspensions were thus vortexed and centrifuged at 12,000 rpm for 5 min. The supernatants were retrieved, added with 500 μL of 2-propanol, vortexed, and centrifuged at 12,000 rpm for 15 min to let DNA precipitate. […] DNA-bound Pt(II) was quantified through inductively coupled plasma-mass spectrometry (ICP-MS), and data were normalized to DNA content quantified with NanoDrop Site.
(A and C) Cells were seeded in complete medium (400,000 cells/well); the day after old media were discarded and cells were incubated for 6 h with media-containing compounds at the indicated concentrations, then intracellular protein were extracted, and intracellular ^195Pt was evaluated as ng ^195Pt over protein concentration (A) and further normalized vs the compounds’ working concentrations provided (C). […]

[5] = Stability in solution followed by absorption spectra over time; format: physicochemical; conditions: for fate in aqueous environment (aquation): DMSO/buffer 0.5% v/v pH 7.4, within 24 h, spectra supported by TD-DFT; for solubility in aqueous medium: inferred from reduction of optical density over time
Experimental: Spectrofluorimetric-grade solvents were used for the photophysical investigations. The buffer solution (pH 7.4) was prepared by dissolving one phosphate buffer saline table in 200 mL of water. Compounds 1–3 were dissolved in DMSO and then diluted to reach a final concentration of 1 × 10^–5 M in DMSO as well as DMSO/buffer 0.5% v/v. A PerkinElmer Lambda 900 spectrophotometer was employed to obtain the UV–visible absorption spectra, using 10 mm path-length quartz cuvettes.
The photophysical properties of 1–3 in DMSO have been previously discussed.[13],[35] In order to investigate the tendency of the Pt(II) complexes to undergo hydrolysis reactions giving the corresponding aqua-complexes, their stability in aqueous solution was monitored spectrophotometrically, acquiring the absorption profiles over time (t = 0, 3, 6, and 24 h). In particular, absorption spectra were registered by dissolving 1–3 in DMSO then diluted in buffer solution (DMSO 0.5% v/v). Moreover, in order to follow a possible aquation reaction with a slower kinetics, absorption spectra were recorded dissolving 1–3 in DMSO containing a low water content, by using a nonanhydrous spectroscopic-grade solvent.

Compound | chromatographic logP [1] | logPow^exp [2] | intracellular protein-bound Pt compared to the highest cisplatin dose (MDA-MB-231 cell line; highest tested concentration) [fold] | UV–vis spectral change on addition of CT-DNA (Calf Thymus DNA (CT-DNA)) | IC50 [3] [µM] | increase in DNA-bound ^195Pt compared to cisplatin 60 μM ([4]; highest tested concentration, 6 h, Figure 6B) [fold] | fate in aqueous environment (aquation) [5] | solubility in aqueous medium [5] | logPow^exp [1] | logPow (approximate) [1] | cytosolic localization (intracellular Pt) (MDA-MB-231 cell line; compared to cisplatin and the other compounds) | accumulation of platinum in the DNA, corrected for working concentration ([4]; 2 μM 1 compared to cisplatin 60 and 150 μM 2, 6 h, Figure 6D) [fold]
O=C1c2ccccc2C(=O)c2c1ccc(O)c2O [alizarine] | 1.87 | – | – | – | – | – | – | – | – | – | – | –
N.N.O=C([O-])C1(C(=O)[O-])CCC1.[Pt+2] [carboplatin] | – | -2.30 ^a | – | – | – | – | – | – | – | – | – | –
Brc1c(Br)c(Br)c2c(c1Br)[O][Pt-]([c]1ccccc1-c1ccccn1)[O]2.CCCC[N+](CCCC)(CCCC)CCCC [Complex 2, NBu4[(PhPy)Pt(BrCat)]] | – | – | 3 | decrease of the band at 545 nm | 52.8 ± 3.9 | 1.6 | converted to the corresponding mono-aquo complexes | poor solubility | 4.53 | ~4.5 | – | –
N.N.O=C1c2ccccc2C(=O)c2c1ccc1c2[O][Pt][O]1 [Complex 3, [(NH3)2Pt(Aliz)]] | – | – | – | decrease of the band at 545 nm | 127 ± 2.7 | – | converted to the corresponding mono-aquo complexes | poor solubility | 0.47 | – | – | –
CCCC[N+](CCCC)(CCCC)CCCC.O=C1c2ccccc2C(=O)c2c1ccc1c2[O][Pt-]([c]2ccccc2-c2ccccn2)[O]1 (stereo not shown) [Complex 1, NBu4[(PhPy)Pt(Aliz)]] | – | – | – | decrease of the band at 545 nm | 1.9 ± 1.6 | – | complete detachment of the (O^O) ligand | – | 3.33 | around 3 | barely localizes into cytosol | 10
